The numbers were not newly measured in patent US12016830B2, “Pharmaceutical compositions comprising isotretinoin and processes for preparation and uses thereof” (Acrotech Biopharma Inc., priority 2022, dated 2024), which cites them from elsewhere.

The conditions of the series: background statement.

As for `CC1=C(/C=C/C(C)=C/C=C/C(C)=C\C(=O)O)C(C)(C)CCC1` [Isotretinoin, 13-cis retinoic acid], the oral bioavailability result is reported as “low oral bioavailability”.
